Test results: ChEMBL document CHEMBL5104103 (J Med Chem, 2022); call rule not given here
In brackets after ≈: the same amount, converted by molar mass.

Assays:
[1] = Permeability across basolateral to apical membrane in human Caco-2 cells; assay type: ADME, cell-based; settings: read-out: permeability
[2] = Solubility of compound in PBS at pH 7 by LCMS/MS analysis; assay type: physicochemical
[3] = Permeability across apical to basolateral membrane in human Caco-2 cells; assay type: ADME, cell-based; settings: read-out: permeability
[4] = Inhibition of anti-IgM-stimulated CD20+ B cell activation in human whole blood assessed as measuring CD69 expression level pretreated for 1 hr followed by anti-IgM stimulation measured after 18 hrs by flow cytometry
[5] = Cmax in rat at 20 mg/kg, po or 2 mg/kg, iv; assay type: ADME, organism-based; parameters: dose 20 mg/kg, route po; settings: in vivo
[6] = Clearance in human liver S9 fraction assessed as measuring per mg protein by LCMS/MS analysis; assay type: ADME, subcellular; settings: read-out: CLH
[7] = Clearance in rat at 2 mg/kg, iv; assay type: ADME, organism-based; settings: in vivo
[8] = AUC in rat at 20 mg/kg, po or 2 mg/kg, iv; assay type: ADME, organism-based; parameters: dose 20 mg/kg, route po; settings: in vivo, read-out: AUC
[9] = Oral bioavailability in rat at 20 mg/kg; assay type: ADME, organism-based; settings: in vivo
[10] = biological target: Voltage-gated inwardly rectifying potassium channel KCNH2 (Homo sapiens, UniProt Q12809); test: Inhibition of hERG; assay type: toxicity
[11] = Drug concentration in plasma of collagen-induced arthritis Lewis rat model 20 mg/kg measured after 24 hrs post-collection of plasma; assay type: ADME, organism-based; settings: in vivo, BLD = below limit of detection
[12] = biological target: Tyrosine-protein kinase Blk (Homo sapiens, UniProt P51451); test: Inhibition of BLK (unknown origin) using peptide substrate in presence of ATP
[13] = biological target: T1, Tyrosine-protein kinase TXK (Homo sapiens, UniProt P42681); test: Inhibition of RLK (unknown origin) using peptide substrate in presence of ATP
T1 sequence (P42681 whole entry): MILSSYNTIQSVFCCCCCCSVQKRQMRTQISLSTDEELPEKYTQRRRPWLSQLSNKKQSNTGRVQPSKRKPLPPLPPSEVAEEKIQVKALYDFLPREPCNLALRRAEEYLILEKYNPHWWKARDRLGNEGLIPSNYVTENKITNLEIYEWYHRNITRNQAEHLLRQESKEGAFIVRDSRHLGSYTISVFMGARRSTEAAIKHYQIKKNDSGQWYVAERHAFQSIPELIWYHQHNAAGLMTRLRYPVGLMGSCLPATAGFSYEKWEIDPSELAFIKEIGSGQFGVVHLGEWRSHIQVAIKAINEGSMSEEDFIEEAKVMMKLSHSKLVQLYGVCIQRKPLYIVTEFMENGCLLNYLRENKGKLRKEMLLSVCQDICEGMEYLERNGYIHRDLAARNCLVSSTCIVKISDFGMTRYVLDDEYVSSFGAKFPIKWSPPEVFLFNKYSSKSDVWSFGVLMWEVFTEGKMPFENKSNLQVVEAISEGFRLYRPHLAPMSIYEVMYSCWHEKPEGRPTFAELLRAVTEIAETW

[14] = biological target: T2, Cytoplasmic tyrosine-protein kinase BMX (Homo sapiens, UniProt P51813); test: Inhibition of BMX (unknown origin) using peptide substrate in presence of ATP
T2 sequence (P51813 whole entry): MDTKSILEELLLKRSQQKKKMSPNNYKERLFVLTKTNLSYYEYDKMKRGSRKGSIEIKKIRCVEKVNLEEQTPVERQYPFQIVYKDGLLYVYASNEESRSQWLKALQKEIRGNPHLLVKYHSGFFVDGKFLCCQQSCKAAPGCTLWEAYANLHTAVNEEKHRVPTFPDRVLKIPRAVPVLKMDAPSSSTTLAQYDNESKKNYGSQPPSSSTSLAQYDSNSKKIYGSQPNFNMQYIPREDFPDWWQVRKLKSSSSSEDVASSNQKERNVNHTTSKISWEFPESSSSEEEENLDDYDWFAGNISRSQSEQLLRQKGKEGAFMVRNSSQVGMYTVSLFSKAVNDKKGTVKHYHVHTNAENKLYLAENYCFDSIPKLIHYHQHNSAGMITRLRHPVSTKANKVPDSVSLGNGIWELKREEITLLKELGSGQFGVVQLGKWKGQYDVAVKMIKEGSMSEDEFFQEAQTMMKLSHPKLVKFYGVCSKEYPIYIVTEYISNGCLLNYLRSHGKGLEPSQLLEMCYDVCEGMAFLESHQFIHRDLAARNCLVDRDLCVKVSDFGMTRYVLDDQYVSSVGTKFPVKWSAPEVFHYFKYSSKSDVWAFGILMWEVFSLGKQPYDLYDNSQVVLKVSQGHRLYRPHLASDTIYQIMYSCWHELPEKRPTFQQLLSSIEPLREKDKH

[15] = Drug concentration in plasma of collagen-induced arthritis Lewis rat model 20 mg/kg measured after 12 hrs post-collection of plasma; assay type: ADME, organism-based
[16] = biological target: T3, Tyrosine-protein kinase Tec (Homo sapiens, UniProt P42680); test: Inhibition of TEC (unknown origin) using peptide substrate in presence of ATP
T3 sequence (P42680 whole entry): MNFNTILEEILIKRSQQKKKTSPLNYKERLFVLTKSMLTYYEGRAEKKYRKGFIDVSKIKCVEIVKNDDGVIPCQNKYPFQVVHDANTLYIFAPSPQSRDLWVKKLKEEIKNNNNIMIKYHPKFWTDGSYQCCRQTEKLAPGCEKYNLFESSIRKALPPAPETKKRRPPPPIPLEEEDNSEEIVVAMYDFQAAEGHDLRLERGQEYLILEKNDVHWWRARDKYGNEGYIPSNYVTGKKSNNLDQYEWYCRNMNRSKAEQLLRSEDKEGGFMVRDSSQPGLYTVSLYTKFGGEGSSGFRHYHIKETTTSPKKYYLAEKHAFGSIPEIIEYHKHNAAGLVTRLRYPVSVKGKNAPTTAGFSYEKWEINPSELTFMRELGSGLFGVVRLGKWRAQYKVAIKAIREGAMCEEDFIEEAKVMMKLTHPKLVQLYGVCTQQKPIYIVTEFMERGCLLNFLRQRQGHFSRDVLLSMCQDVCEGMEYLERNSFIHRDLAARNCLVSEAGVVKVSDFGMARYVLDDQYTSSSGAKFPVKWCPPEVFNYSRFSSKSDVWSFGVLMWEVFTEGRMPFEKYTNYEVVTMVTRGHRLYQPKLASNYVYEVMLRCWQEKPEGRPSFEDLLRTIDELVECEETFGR

[17] = Drug concentration in plasma of collagen-induced arthritis Lewis rat model 20 mg/kg measured after 4 hrs post-collection of plasma; assay type: ADME, organism-based
[18] = Drug concentration in plasma of collagen-induced arthritis Lewis rat model 20 mg/kg measured after 1 hr post-collection of plasma; assay type: ADME, organism-based

Tyrosine-protein kinase Blk, sequence (P51451 whole entry): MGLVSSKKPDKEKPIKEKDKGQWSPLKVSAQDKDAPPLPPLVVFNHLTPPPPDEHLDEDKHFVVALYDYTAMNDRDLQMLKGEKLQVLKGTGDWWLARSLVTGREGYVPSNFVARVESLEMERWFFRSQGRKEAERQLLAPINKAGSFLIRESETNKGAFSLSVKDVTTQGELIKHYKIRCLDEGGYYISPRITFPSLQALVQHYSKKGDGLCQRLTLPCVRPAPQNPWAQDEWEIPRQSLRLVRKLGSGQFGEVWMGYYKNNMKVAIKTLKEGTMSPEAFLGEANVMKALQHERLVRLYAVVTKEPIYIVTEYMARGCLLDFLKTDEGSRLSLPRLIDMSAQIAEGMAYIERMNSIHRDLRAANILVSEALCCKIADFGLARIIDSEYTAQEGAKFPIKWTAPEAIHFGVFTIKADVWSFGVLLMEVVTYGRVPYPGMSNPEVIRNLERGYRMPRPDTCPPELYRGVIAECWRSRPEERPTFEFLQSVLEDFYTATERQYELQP
Voltage-gated inwardly rectifying potassium channel KCNH2, sequence (Q12809 whole entry): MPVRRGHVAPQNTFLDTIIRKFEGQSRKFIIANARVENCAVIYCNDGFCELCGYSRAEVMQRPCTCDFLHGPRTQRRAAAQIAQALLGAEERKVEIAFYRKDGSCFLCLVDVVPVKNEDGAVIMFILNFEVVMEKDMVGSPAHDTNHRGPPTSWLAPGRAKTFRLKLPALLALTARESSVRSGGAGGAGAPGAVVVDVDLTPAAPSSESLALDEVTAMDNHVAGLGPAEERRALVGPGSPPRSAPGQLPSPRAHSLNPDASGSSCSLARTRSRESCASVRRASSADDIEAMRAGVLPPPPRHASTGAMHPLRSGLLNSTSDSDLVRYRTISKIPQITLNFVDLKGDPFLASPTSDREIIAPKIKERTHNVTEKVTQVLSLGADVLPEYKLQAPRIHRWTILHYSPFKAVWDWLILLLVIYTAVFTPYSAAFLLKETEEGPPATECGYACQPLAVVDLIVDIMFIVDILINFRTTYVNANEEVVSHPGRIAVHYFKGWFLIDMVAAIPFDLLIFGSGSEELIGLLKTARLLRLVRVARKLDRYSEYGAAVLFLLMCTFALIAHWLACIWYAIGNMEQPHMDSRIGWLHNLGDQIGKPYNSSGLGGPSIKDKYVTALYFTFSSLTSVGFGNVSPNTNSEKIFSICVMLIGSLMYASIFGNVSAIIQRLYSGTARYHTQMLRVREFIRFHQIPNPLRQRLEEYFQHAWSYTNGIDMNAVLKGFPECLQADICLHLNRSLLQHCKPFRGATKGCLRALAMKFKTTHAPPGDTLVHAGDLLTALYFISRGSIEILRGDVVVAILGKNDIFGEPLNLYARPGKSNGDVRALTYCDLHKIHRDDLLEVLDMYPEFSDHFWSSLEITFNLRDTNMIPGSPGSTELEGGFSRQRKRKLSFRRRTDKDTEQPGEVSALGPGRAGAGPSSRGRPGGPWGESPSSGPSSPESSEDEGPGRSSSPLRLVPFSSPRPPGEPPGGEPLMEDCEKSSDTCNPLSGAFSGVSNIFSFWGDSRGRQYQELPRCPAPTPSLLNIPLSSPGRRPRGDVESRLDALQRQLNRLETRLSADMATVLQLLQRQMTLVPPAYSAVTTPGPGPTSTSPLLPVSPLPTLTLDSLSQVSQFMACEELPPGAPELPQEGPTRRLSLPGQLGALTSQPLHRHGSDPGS

SMILES | Papp B→A [1] [×10⁻⁶ cm/s] | solubility [2] [µM] | Papp A→B [3] [×10⁻⁶ cm/s] | IC50 [4] [nM] | microsomal CLint [6] [µL/min/mg] | also measured
CC(=O)N1CCN(C(C)(C)/C=C(\C#N)C(=O)N2CCC[C@@H](n3nc(-c4ccc(Oc5ccccc5)cc4F)c4c(N)ncnc43)C2)CC1 | 22 | 31 (≈ 20.2 µg/mL) | 0.6 | 193 | – | –
CC1(/C=C(\C#N)C(=O)N2CCC[C@@H](n3nc(-c4ccc(Oc5ccccc5)cc4F)c4c(N)ncnc43)C2)COC1 | – | – | – | 224 | – | –
CN1CCN(C(C)(C)/C=C(\C#N)C(=O)N2CCC[C@@H](n3nc(-c4ccc(Oc5ccccc5)cc4F)c4c(N)ncnc43)C2)CC1=O | 5.5 | 90 (≈ 57.4 µg/mL) | 0.4 | 130 | 80 | Cmax [5]: 345 ng/mL; clearance [7]: 73 mL/min/kg; AUC [8]: 528 ng·h/mL; bioavailability [9]: 10.9%
C[C@@H]1CN(C(C)(C)/C=C(\C#N)C(=O)N2CCC[C@@H](n3nc(-c4ccc(Oc5ccccc5)cc4F)c4c(N)ncnc43)C2)C[C@H](C)N1 | – | – | – | 442 | – | –
C[C@@H]1CN(C(C)(C)/C=C(\C#N)C(=O)N2CCC[C@@H](n3nc(-c4ccc(Oc5ccccc5)cc4F)c4c(N)ncnc43)C2)C[C@H](C)N1C | 2.5 | 263 (≈ 171 µg/mL) | 0.3 | 128 | 14 | Cmax [5]: 392 ng/mL; clearance [7]: 91 mL/min/kg; AUC [8]: 2460 ng·h/mL; bioavailability [9]: 67%; inhibition (INH) [10]: Active
CC(C)(/C=C(\C#N)C(=O)N1CCC[C@@H](n2nc(-c3ccc(Oc4ccccc4)cc3F)c3c(N)ncnc32)C1)N1CCN(C2COC2)CC1 [RILZABRUTINIB] | 5.3 | 125 (≈ 83.2 µg/mL) | 1.7 | 123 | 23 | Cp [11]: Bld; IC50 [12]: 6.3 nM; Cmax [5]: 270 ng/mL; IC50 [13]: 1.2 nM; clearance [7]: 66 mL/min/kg; IC50 [14]: 1 nM; concentration at 12 h [15]: 4.6 ng/mL; IC50 [16]: 0.8 nM; AUC [8]: 622 ng·h/mL; concentration at 4 h [17]: 106 ng/mL; concentration at 1 h [18]: 128 ng/mL; bioavailability [9]: 12.3%
COCCN1CCN(C(C)(C)/C=C(\C#N)C(=O)N2CCC[C@@H](n3nc(-c4ccc(Oc5ccccc5)cc4F)c4c(N)ncnc43)C2)CC1 | 6 | 210 (≈ 140 µg/mL) | 0.2 | 169 | 49 | –
CC(C)(/C=C(\C#N)C(=O)N1CCC[C@@H](n2nc(-c3ccc(Oc4ccccc4)cc3F)c3c(N)ncnc32)C1)N1CCNCC1 | 3.4 | 238 (≈ 145 µg/mL) | 0.07 | 401 | – | –
CC(C)(N)/C=C(\C#N)C(=O)N1CCC[C@@H](n2nc(-c3ccc(Oc4ccccc4)cc3F)c3c(N)ncnc32)C1 | – | – | – | 360 | – | –

More lines, main results first:

Papp B→A [1] [×10⁻⁶ cm/s] | solubility [2] [µM] | Papp A→B [3] [×10⁻⁶ cm/s] | IC50 [4] [nM] | microsomal CLint [6] [µL/min/mg] | SMILES | also measured
24 | 1.1 (≈ 0.735 µg/mL) | 3.2 | 179 | 68 | COC(=O)N1CCN(C(C)(C)/C=C(\C#N)C(=O)N2CCC[C@@H](n3nc(-c4ccc(Oc5ccccc5)cc4F)c4c(N)ncnc43)C2)CC1 | Cmax [5]: 142 ng/mL; clearance [7]: 89 mL/min/kg; AUC [8]: 432 ng·h/mL; bioavailability [9]: 11.5%
– | – | – | 821 | – | CC(C)(/C=C(\C#N)C(=O)N1CCC[C@@H](n2nc(-c3ccc(Oc4ccccc4)cc3F)c3c(N)ncnc32)C1)CO | –
– | – | – | 158 | – | CN(C)C(C)(C)/C=C(\C#N)C(=O)N1CCC[C@@H](n2nc(-c3ccc(Oc4ccccc4)cc3F)c3c(N)ncnc32)C1 | –
– | – | – | 16.7 | – | CC(C)(/C=C(\C#N)C(=O)N1CCC[C@@H](n2nc(-c3ccc(Oc4ccccc4)cc3F)c3c(N)ncnc32)C1)N1CCOCC1 | –
– | – | – | 196 | – | N#C/C(=C/C1CC1)C(=O)N1CCC[C@@H]1Cn1nc(-c2ccc(Oc3ccccc3)cc2F)c2c(N)ncnc21 | –
25.8 | – | 1 | 381 | – | CC(C)(/C=C(\C#N)C(=O)N1CCC[C@@H](n2nc(-c3ccc(Oc4ccccc4)cc3F)c3c(N)ncnc32)C1)N1CCNC(=O)C1 | –
